From patent US4672063A, “Antiallergic 5-alkyl-1-phenyl-2-piperazinoalkylpyrazolin-3-one compounds” (Kali-Chemie Pharma GmbH, priority 1984, dated 1987)

Key:
[1] = Acute 8-day toxicity, single i.p. application to male mice (LD50); conditions: in vivo, ip, mouse i.p., 8 days
Description: The acute 8-day toxicity is determined after a single application i.p. to male mice (body weight 18 to 22 g). The mortality is noted for 8 days. The results are calculated as LD50 values, i.e. the dose which kills 50% of the animals.

[2] = tested on: passive cutaneous anaphylaxis; assay: Inhibition of passive cutaneous anaphylaxis (PCA) in the rat, test substance p.o.; format: in vivo, rat (Sprague-Dawley); conditions: po, 50% reduction in dye concentration vs control, read-out: ED50 inhibiting effect, passive cutaneous anaphylaxy
Description: (§1) 2. Determining the inhibition of passive cutaneous anaphylaxis (PCA) and the inhibition of anaphylactoid cutaneous reactions induced by histamine and by serotonin.
For the preparation of an antiovalbumin serum, rich in IgE, which is used in the test, according to the method of Lehrer et al (J. Immunol. 116, (1976) 178-182) and Pauwels et al (Ann. Immunol. 230C., (1979), 49-58), Sprague-Dawley rats are sensitized by i.p. injection of 1 mg ovalbumin and 1 ml Bordetella pertussis suspension (vaxicoq, Merieux 3×10^10 organisms/ml). After 20 days the animals are given an injection of 10 mg ovalbumin in the same way, but without any additive. After a further 4 days, blood is removed from the animals and the blood is centrifuged. The antiserum thus obtained is stored at -20° C. and adjusted according to the method of Goose et al (Immunology 16 (1968) 749-760).
(§2) The determination of the inhibition of passive cutaneous anaphylaxis and the anaphylactoid cutaneous reactions induced by histamine and by serotonin, are carried out, as set forth below, according to the method of Martin and Baggiolini (Naunyn-Schmeiedeberg's Archives of Pharmacology 316 (1981) 186-189).
(§3) For passive sensitizing against ovalbumin, male Sprague-Dawley rates (body weight 150 to 165 g) are injected intradermally on a shaved part of the back with 0.05 ml of a 1:2.5 dilution of antiovalbumin serum, rich in IgE, in physiological sodium chloride solution.
(§4) 24 hours after the sensitizing, solutions of the test substances are administered orally to the rats. For comparison, a control group receives only the solvent.
(§5) Immediately thereafter 1.25 mg (-~8 mg/kg) ovalbumin to trigger the anaphylactic reaction, and 4 mg (-~26.4 mg/kg) of a blue dye dissolved in 0.5 ml phosphate-buffered physiological sodium chloride solution are administered i.v. to the animals.
(§6) After 30 minutes the animals are killed, the skin is removed and in the individual blue patches the quantity of dye contained therein is determined separately. According to the method of Mordelet-Danbrine et al (Therapie 29 (1974) 851-862) the dye is extracted from the individual patches in each case with 2.5 ml dimethylformamide at a temperature of 37° C. for 4 days and the quantity of dye obtained in each case in the extraction solution is determined by spectrophotometric measurement. The doses of the test substances which cause a 50% reduction in the dye concentration compared with the control group are calculated as ED50 values.

[3] = tested on: histamine-induced anaphylactoidal reaction; assay: Inhibition of histamine-induced anaphylactoid cutaneous reaction in the rat, test substance p.o.; format: in vivo, rat (Sprague-Dawley); conditions: po, 40 μg histamine intradermally, read-out: ED50 inhibiting effect, histamine-induced anaphylactoidal reaction
Description: as §1, §2, §3, §4
(§7) To trigger the histamine-induced and serotonin-induced anaphylactoid reactions of the skin, the animals are injected intradermally 30 minutes later on a second shaved part of the back with a solution of 40 μg histamine in 0.05 ml physiological sodium chloride solution and on a third shaved part of the back with a solution of 1 μg serotonin in 0.05 physiological sodium chloride solution.
as §5, §6

[4] = tested on: serotonin induced anaphylactoidal reaction; assay: Inhibition of serotonin-induced anaphylactoid cutaneous reaction in the rat, test substance p.o.; format: in vivo, rat (Sprague-Dawley); conditions: po, 1 μg serotonin intradermally, read-out: ED50 inhibiting effect, serotonin induced anaphylactoidal reaction
Description: as §1, §2, §3, §4, §7, §5, §6

[5] = tested on: peritonal mast cells of rats; assay: In vitro inhibition of anaphylactically caused histamine release from peritonal mast cells of rats; format: cell-based, rat (Sprague-Dawley); conditions: Rattus norvegicus, Mast cell; ovalbumin trigger, 1 minute preincubation at 37° C.; read-out: EC50 in vitro inhibiting effect with respect to anaphylactically caused histamine release from mast cells of the rat
Description: 3. Determining the inhibiting effect in vitro on the release of histamine, caused anaphylactically, from peritonal mast cells of rats.
In order to obtain the peritonal mast cells, Sprague-Dawley rats are killed by inhalation of ether and immediately after cessation of breathing has occurred, 15 ml of a cold solution of 1 mg/ml human serum albumin in phosphate-buffered sodium chloride solution are injected into the abdominal cavity. The peritonal fluid is then removed and the mast cells are separated therefrom by centrifuging and are suspended in phosphate-buffered sodium chloride solution, whereafter the suspension is adjusted to a mast cell concentration of 5×10^5 per ml.
The mast cell suspension, divided up into samples each of 100 μl, is introduced into test-tubes and each sample, for passive sensitizing, is mixed with 100 μl of a 1:10 dilution of IgE-rich antiovalbumin serum in physiological sodium chloride solution (prepared according to the method described above) and is incubated for 30 minutes at a temperature of 37° C. (water bath). For the removal of unbonded IgE, the mast cells are then washed with 2 ml phosphate-buffered sodium chloride solution, centrifuged, and the supernatant fluid is discarded. Then the mast cells are incubated for 1 minute at 37° C. with 200 μl of a solution of the test substance in phosphate-buffered sodium chloride solution. A control group is only incubated with the same quantity of phosphate-buffered sodium chloride solution which is free of test substance.
After an incubation period of 3 minutes at 37° C., the reaction is stopped by rapid cooling in an ice bath. Then centrifuging takes place, the supernatant fluid is decanted and the histamine content therein is determined directly, without further extraction, spectrofluorimetrically according to the method of Shore (J. Pharmac. Exp. Ther. 127 (1959) 182-186).
For the extraction of the residual histamine still contained in the mast cells of the undecanted material, the latter is mixed with 2 ml phosphate-buffered sodium chloride solution and the suspension is heated in a boiling water bath. Then centrifuging takes place, the supernatant fluid is decanted and therein the residual histamine extracted from the mast cells is determined spectrofluorimetrically.
For each sample, the quantity of the released histamine is calculated as percentage proportion of the overall quantity of histamine (=total of released histamine and residual histamine retained in the mast cells).
The EC50 values are calculated to be those molar concentrations of the test substances in the respective test solutions which produce a 50% inhibition of the histamine release compared to the control group.

Row | Structure (SMILES) | LD50 at 192 h [1] [mg/kg] | ED50 [2] [mg/kg] | ED50 [3] [mg/kg] | ED50 [4] [mg/kg] | EC50 [5] [µM]
1 | Cc1ccnc(N2CCN(CCCn3c(=O)cc(C)n3-c3ccc([N+](=O)[O-])cc3)CC2)c1 [Example 2, 5-methyl-1-(4-nitrophenyl)-2-{3-[4-(4-methyl-pyrid-2-yl)-piperazin-1-yl]-propyl}-pyrazolin-3-one] | 90 | 1.9 | 1.75 | 2.7 | –
2 | Cc1ccnc(N2CCN(CCCCn3c(=O)cc(C)n3-c3ccccc3)CC2)c1 [Example 4, 5-methyl-1-phenyl-2-{4-[4-(4-methyl-pyrid-2-yl)-piperazin-1-yl]-butyl}-pyrazolin-3-one] | 130 | 3.9 | 7.98 | 5.9 | –
3 | Cc1ccnc(N2CCN(CCCn3c(=O)cc(C)n3-c3ccc(O)cc3)CC2)c1 [Example 7, 5-methyl-1-(4-hydroxyphenyl)-2-{3-[4-(4-methyl-pyrid-2-yl)-piperazin-1-yl]-propyl}-pyrazolin-3-one] | 178 | 6.6 | 7.9 | 13 | –
4 | Cc1cc(=O)n(CCCN2CCN(c3ccccc3)CC2)n1-c1ccccc1 [Example 11] | 108 | 4.65 | 10.1 | 10.2 | –
5 | CCCc1cc(=O)n(CCCN2CCN(c3cc(C)ccn3)CC2)n1-c1ccccc1 [Example 13] | 96 | 2.94 | 5.48 | 1.87 | –
6 | Cc1ccnc(N2CCN(CCCn3c(=O)cc(C4CCCCC4)n3-c3ccccc3)CC2)c1 [Example 15] | 90 | 1.9 | 4.4 | 1.7 | 14
7 | COC(=O)c1ccccc1-n1c(C)cc(=O)n1CCCN1CCN(c2cc(C)ccn2)CC1 [Example 17] | 342 | 5 | 12.6 | 10.8 | –
8 | Cc1ccnc(N2CCN(CCCn3c(=O)cc(C)n3-c3ccc(Cl)cc3)CC2)c1 [Example 18] | 205 | 4.7 | 6.6 | 6.2 | 230
9 | COc1ccc(N2CCN(CCCn3c(=O)cc(C)n3-c3ccc(C)cc3Cl)CC2)cc1 [Example 20] | – | – | – | – | 10
10 | COc1ccccc1-n1c(C)cc(=O)n1CCCN1CCN(c2cc(C)ccn2)CC1 [Example 21] | 252 | 7.1 | 5.1 | 8.3 | –
11 | CCCc1cc(=O)n(CCCN2CCN(c3ccc(F)cc3)CC2)n1-c1ccc(Cl)c(Cl)c1 [Example 22] | – | – | – | – | 43
12 | CCc1cc(=O)n(CCCN2CCN(c3cc(C)ccn3)CC2)n1-c1ccc(Cl)cc1 [Example 23] | 168 | 7.85 | 4.7 | 5.8 | 140
13 | CCCCCCc1cc(=O)n(CCCN2CCN(c3cc(C)ccn3)CC2)n1-c1ccccc1 [Example 26] | 72.5 | 6.75 | 6.3 | 7.8 | 35
14 | CCOc1ccc(-n2c(C)cc(=O)n2CCCN2CCN(c3cc(Cl)ccc3C)CC2)cc1 [Example 30] | – | – | – | – | 18
15 | CCc1cc(=O)n(CCCN2CCN(c3cc(C)ccn3)CC2)n1-c1ccc([N+](=O)[O-])cc1 [Example 38] | 93 | 3.18 | 3.88 | 5.54 | –
16 | O=c1cc(C2CC2)n(-c2ccccc2)n1CCCN1CCN(c2ccc(F)cc2)CC1 [Example 43] | – | 2.45 | 5.79 | 3.25 | –
17 | CC(=O)c1ccc(-n2c(C)cc(=O)n2CCCN2CCN(c3cc(C)ccn3)CC2)cc1 [Example 44] | 170 | 5.4 | 3.15 | 8.9 | –
18 | Cc1cc(=O)n(CCCN2CCN(c3ccccn3)CC2)n1-c1ccccc1 [Example 45] | 240 | 6.3 | 11 | 8 | –
19 | Cc1ccnc(N2CCN(CCCn3c(=O)cc(C)n3-c3ccc(C#N)cc3)CC2)c1 [Example 46] | 101 | 6.3 | 2.8 | 8 | –
20 | COc1ccc(-n2c(C)cc(=O)n2CCCN2CCN(c3cc(C)ccn3)CC2)cc1 [Example 47] | 190 | 5.96 | 6.8 | 6.8 | –
21 | O=c1cc(C2CCCCC2)n(-c2ccccc2)n1CCCN1CCN(c2ccc(F)cc2)CC1 [Example 49] | 96 | 4.9 | 10.6 | 3.59 | 57
22 | Cc1ccc(-n2c(C)cc(=O)n2CCCN2CCN(c3cc(C)ccn3)CC2)cc1 [Example 55] | 135 | 7.26 | 11.9 | 11.8 | –
23 | COc1ccc(-n2c(C)cc(=O)n2CCCN2CCN(c3cc(C)ccn3)CC2)cc1OC [Example 56] | > 350 | 5.7 | 3.85 | 6.29 | –
24 | Cc1ccnc(N2CCN(CCCn3c(=O)cc(C4CCCC4)n3-c3ccccc3)CC2)c1 [Example 58] | 95 | 1.17 | 10 | 1.41 | 120
